Paper PMC9823331, “Permeability of New Antifungal Fluconazole Derivatives through a Lipophilic Membrane: Experiment and Modeling” (Molecules, 2023)

What was measured:
[1] = Distribution in the 1-octanol/buffer pH 7.4 system; assay type: physicochemical; details: calculated by Henderson–Hasselbalch equation
[2] = test system: C. parapsilosis ATCC 22019; parameters: method as in earlier work; details: cited from earlier work
[3] = parameters: method as in PMID 33713781; details: cited from earlier work
[4] = Membrane permeability assay through the PermeaPad barrier (Franz diffusion cell); assay type: in vitro ADME; details: buffer pH 7.4, 37 °C, values are Papp multiplied by 10^5, read-out: Papp⋅10^5, apparent permeability coefficient
Text: A vertical-type Franz diffusion cell (PermeGear, Inc., Hellertown, PA, USA) was used to measure the permeability of the studied compounds. The biomimetic lipophilic PermeaPad barrier (PHABIOC, Germany, www.permeapad.com, accessed on 20 May 2021) fully described by di Cagno et al. was employed in the present study to simulate the morphology and properties of the biologic membranes. This membrane was chosen because of its advantageous properties and user friendliness. PermeaPad belongs to cell-free permeation systems. It is composed of two cellulose membranes with a thin layer of phosphatidylcholine (S-100) between them. […]
Firstly, the donor chamber was filled with the donor solution of the tested compound in buffer pH 7.4, then the PermeaPad barrier was mounted between the donor and receptor parts of the diffusion cell (0.785 cm^2 effective surface area) carefully avoiding the air bubbles (which can minimize the active area of the membrane, thus, slowing the permeation). […] The sample solution concentrations were measured spectrophotometrically (Spectramax 190; Molecular Devices, Molecular Devices Corporation, San Jose, CA, USA) in 96-well UV black plates (Costar) at λ = 270 nm. […]
The apparent permeability coefficient (Papp) was calculated by normalizing the slope (J) by the compound concentration in the donor solution (C0) by the equation:(9) Papp=J/C0 […]

SMILES	logK0, distribution coefficient for the uncharged particles [1]	Papp at 5 h [4]	log(1/MIC) [2]	logKoct/buf, apparent distribution coefficient in the 1-octanol/buffer pH 7.4 system [3]
O=C(Cn1cnc2c(sc(=S)n2-c2ccc(F)cc2)c1=O)NCC(O)(Cn1cncn1)c1ccc(F)cc1F (centres unmarked) [VI, N-[2-(2,4-difluorophenyl)-2-hydroxy-3-(1,2,4-triazol-1-yl)propyl]-2-[3-(4-fluorophenyl)-7-oxo-2-thioxo-thiazolo[4,5-d]pyrimidin-6-yl]acetamide]	-4.72		-1.51	
Cc1ccc(-n2c(=S)sc3c(=O)n(CC(=O)NCC(O)(Cn4cncn4)c4ccc(F)cc4F)cnc32)cc1 (centres unmarked) [IV, N-[2-(2,4-difluorophenyl)-2-hydroxy-3-(1,2,4-triazol-1-yl)propyl]-2-[7-oxo-3-(p-tolyl)-2-thioxo-thiazolo[4,5-d]pyrimidin-6-yl]acetamide]	-4.68		-1.51	1.27
Cc1ccc(-n2c(=S)sc3c(=O)n(CC(O)(Cn4cncn4)c4ccc(F)cc4F)cnc32)cc1 (centres unmarked) [I, N-[2-(2,4-difluorophenyl)-2-hydroxy-3-(1,2,4-triazol-1-yl)propyl]-3-(p-tolyl)-2-thioxo-thiazolo[4,5-d]pyrimidin-7-one]			-1.51	0.79
COc1ccccc1-n1c(=S)sc2c(=O)n(CC(O)(Cn3cncn3)c3ccc(F)cc3F)cnc21 (centres unmarked) [II, N-[2-(2,4-difluorophenyl)-2-hydroxy-3-(1,2,4-triazol-1-yl)propyl]-3-(2-methoxyphenyl)-2-thioxo-thiazolo[4,5-d]pyrimidin-7-one]	-4.66		-0.90	
O=c1c2sc(=S)n(-c3ccc(F)cc3)c2ncn1CC(O)(Cn1cncn1)c1ccc(F)cc1F (centres unmarked) [III, N-[2-(2,4-difluorophenyl)-2-hydroxy-3-(1,2,4-triazol-1-yl)propyl]-3-(4-fluorophenyl)-2-thioxo-thiazolo[4,5-d]pyrimidin-7-one]	-4.76		-1.51	
O=C(Cn1cnc2c(sc(=S)n2-c2ccc(Cl)cc2)c1=O)NCC(O)(Cn1cncn1)c1ccc(F)cc1F (centres unmarked) [V, N-[2-(2,4-difluorophenyl)-2-hydroxy-3-(1,2,4-triazol-1-yl)propyl]-2-[3-(4-chlorophenyl)-7-oxo-2-thioxo-thiazolo[4,5-d]pyrimidin-6-yl]-acetamide]	-4.69		-1.51	

Further lines, with some results ahead:

logK0, distribution coefficient for the uncharged particles [1]	Papp at 5 h [4]	SMILES	log(1/MIC) [2]	logKoct/buf, apparent distribution coefficient in the 1-octanol/buffer pH 7.4 system [3]
-3.95	18.8 ± 0.42 ×10⁻⁶ cm/s	Cc1ccc(-n2c(=S)sc3c(=O)n(CCN4CCN(CC(O)(Cn5cncn5)c5ccc(F)cc5F)CC4)cnc32)cc1 (centres unmarked) [XII, N-[2-[4-[2-(2,4-difluorophenyl)-2-hydroxy-3-(1,2,4-triazol-1-yl)propyl]piperazin-1-yl]ethyl]-2-methyl-3-(p-tolyl)-2-thioxo-thiazolo[4,5-d]pyrimidin-7-one]	0.30	2.90
-4.73		COc1ccccc1-n1c(=S)sc2c(=O)n(CC(=O)NCC(O)(Cn3cncn3)c3ccc(F)cc3F)cnc21 (centres unmarked) [VII, N-[2-(2,4-difluorophenyl)-2-hydroxy-3-(1,2,4-triazol-1-yl)propyl]-2-[3-(2-methoxyphenyl)-7-oxo-2-thioxo-thiazolo[4,5-d]pyrimidin-6-yl]acetamide]	-1.51	0.80
